Measurements taken from ChEMBL document CHEMBL1122901, “Synthesis and biological activities of 2-pyrimidinone nucleosides. 2. 5-Halo-2-pyrimidinone 2'-deoxyribonucleosides” (J Med Chem, 1985).
pKi: −log10 of the molar value.

Tests used:
Human alphaherpesvirus 1 [1] = assay: Antiherpes activity was tested as percent of control of plaque-formation against ACG (Tr7) virus by 5 uM of the compound; type: functional, acycloguanosine resistant strain
Human alphaherpesvirus 1 [2] = assay: Antiherpes activity was tested as percent of control of plaque-formation against BVdUr virus by 5 uM of the compound; type: functional, bromovinyl deoxyuridine resistant strain
Human alphaherpesvirus 1 [3] = assay: Antiherpes activity was tested as percent of control of plaque-formation against HSV-1 (KOS) virus by 5 uM of the compound; type: functional
[4] = Antiherpes activity was tested as percent of control of plaque-formation against PFAr virus by 5 uM of the compound; type: functional, Herpes simplex virus unknown type
Human alphaherpesvirus 1 [5] = assay: Antiherpes activity was tested as percent of control of plaque-formation against ACG (S1) virus by 5 uM of the compound; type: functional, acycloguanosine resistant strain
Human alphaherpesvirus 2 [6] = assay: Binding affinity against HSV-2(333); type: functional, organism-based
Human alphaherpesvirus 2 [7] = assay: Antiherpes activity was tested as percent of control of plaque-formation against HSV-2 (333) virus by 100 uM of the compound; type: functional
Human alphaherpesvirus 2 [8] = assay: Antiherpes activity was tested as percent of control of plaque-formation against HSV-2 (CEU-G) virus by 100 uM of the compound; type: functional
Human alphaherpesvirus 1 [9] = assay: Antiherpes activity was tested as percent of control of plaque-formation against ACG (Tr7) virus by 100 uM of the compound; type: functional, acycloguanosine resistant strain
Human alphaherpesvirus 1 [10] = assay: Antiherpes activity was tested as percent of control of plaque-formation against HSV-1 (CL101) virus by 100 uM of the compound; type: functional
Human alphaherpesvirus 1 [11] = assay: Antiherpes activity was tested as percent of control of plaque-formation against HSV-1 (KOS) virus by 100 uM of the compound; type: functional
Human alphaherpesvirus 1 [12] = assay: Antiherpes activity was tested as percent of control of plaque-formation against BVdUr virus by 100 uM of the compound; type: functional, bromovinyl deoxyuridine resistant strain
Human alphaherpesvirus 1 [13] = assay: Antiherpes activity was tested as percent of control of plaque-formation against ACG (S1) virus by 100 uM of the compound; type: functional, acycloguanosine resistant strain
[14] = Antiherpes activity was tested as percent of control of plaque-formation against PFAr virus by 100 uM of the compound; type: functional, Herpes simplex virus unknown type
Human alphaherpesvirus 1 [15] = assay: Binding affinity against HSV-1(KOS); type: functional, organism-based
Human alphaherpesvirus 2 [16] = assay: Antiherpes activity was tested as percent of control of plaque-formation against HSV-2 (333) virus by 30 uM of the compound; type: functional
Human alphaherpesvirus 1 [17] = assay: Antiherpes activity was tested as percent of control of plaque-formation against HSV-1 (KOS) virus by 30 uM of the compound; type: functional
Human alphaherpesvirus 1 [18] = assay: Antiherpes activity was tested as percent of control of plaque-formation against HSV-1 (CL101) virus by 30 uM of the compound; type: functional
Human alphaherpesvirus 1 [19] = assay: Antiherpes activity was tested as percent of control of plaque-formation against ACG (S1) virus by 30 uM of the compound; type: functional, acycloguanosine resistant strain
Human alphaherpesvirus 1 [20] = assay: Antiherpes activity was tested as percent of control of plaque-formation against ACG (Tr7) virus by 30 uM of the compound; type: functional, acycloguanosine resistant strain
Human alphaherpesvirus 1 [21] = assay: Antiherpes activity was tested as percent of control of plaque-formation against BVdUr virus by 30 uM of the compound; type: functional, bromovinyl deoxyuridine resistant strain

## Nc1nc2c(ncn2COCCO)c(=O)[nH]1 [ACYCLOVIR]
Human alphaherpesvirus 1 [1]
  Control: 85%
Human alphaherpesvirus 1 [2]
  Control: 0.7%
Human alphaherpesvirus 1 [3]
  Control: 6.5%
[4]
  Control: 100%
Human alphaherpesvirus 1 [5]
  Control: 100%

## O=c1[nH]c(=O)n([C@H]2C[C@H](O)[C@@H](CO)O2)cc1I [IDOXURIDINE]
Human alphaherpesvirus 2 [6]
  pKi: 5.40
Human alphaherpesvirus 2 [7]
  Control: 2.8%
Human alphaherpesvirus 2 [8]
  Control: 9.3%
Human alphaherpesvirus 1 [9]
  Control: 2.6%
Human alphaherpesvirus 1 [10]
  Control: 1.6%
Human alphaherpesvirus 1 [11]
  Control: 0.27%
Human alphaherpesvirus 1 [12]
  Control: 14%
Human alphaherpesvirus 1 [13]
  Control: 22%
[14]
  Control: 0.1%
Human alphaherpesvirus 1 [15]
  pKi: 5.74

## O=c1[nH]c(=O)n([C@H]2C[C@H](O)[C@@H](CO)O2)cc1/C=C/Br [BRIVUDINE]
Human alphaherpesvirus 2 [16]
  Control: 1.7%
Human alphaherpesvirus 1 [17]
  Control: 0.1%
Human alphaherpesvirus 1 [18]
  Control: 0.4%
Human alphaherpesvirus 1 [19]
  Control: 3.7%
Human alphaherpesvirus 1 [20]
  Control: 0.8%
Human alphaherpesvirus 1 [21]
  Control: 52%
